Assay results: ChEMBL document CHEMBL1201862, “PubChem BioAssay data set” (2004)
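48-hour exposure; five concentrations; linearly interpolated endpoints. The concentration for 50% growth inhibition is given as GI50.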 The source made the active and inactive calls. Rule as the data show it: active = GI50 up to about 1.1 µM and inactive = higher.

What was measured:
Assay in all cases: growth of human tumour cells (NCI), 48 h
[1] = test system: 786-0
[2] = test system: NCI-H226
[3] = test system: RPMI-8226
[4] = test system: HCC 2998
[5] = test system: A498
[6] = test system: Malme-3M
[7] = test system: LXFL 529
[8] = test system: SR
[9] = test system: SF-539
[10] = test system: LOX IMVI
[11] = test system: HOP-92
[12] = test system: BT-549
[13] = test system: MDA-N
[14] = test system: T47D
[15] = test system: MCF7
[16] = test system: PC-3
[17] = test system: MDA-MB-231
[18] = test system: MDA-MB-435
[19] = test system: NCI/ADR-RES
[20] = test system: DU-145

Row | Structure (SMILES) | GI50 [1] | GI50 [2] | GI50 [3] | GI50 [4] | GI50 [5] | GI50 [6] | GI50 [7] | GI50 [8] | GI50 [9] | GI50 [10] | GI50 [11] | GI50 [12] | GI50 [13] | GI50 [14] | GI50 [15] | GI50 [16] | GI50 [17] | GI50 [18] | GI50 [19] | GI50 [20]
1 | CC1(C)OC2OC(COC(=O)C(c3ccccc3)c3ccccc3)C3OC(C)(C)OC3C2O1 (stereo unspecified) | 24.7 µM (inactive) | > 10 µM (inactive) | 4.5 µM (inactive) | > 10 µM (inactive) | > 10 µM (inactive) | 46.8 µM (inactive) | > 10 µM (inactive) | > 10 µM (inactive) | 95.9 µM (inactive) | 9.68 µM (inactive) | 61.8 µM (inactive) |  |  |  |  |  |  |  |  | 
2 | Cn1c(=O)c2nc3sc4c(n3c2n(C)c1=O)C(=O)c1ccccc1C4=O | > 68.1 µM (inactive) | 65.8 µM (inactive) | 38.4 µM (inactive) | > 80.2 µM (inactive) | > 100 µM (inactive) | > 90.2 µM (inactive) | > 100 µM (inactive) | 19.5 µM (inactive) | > 61.7 µM (inactive) | > 30.9 µM (inactive) | 16.5 µM (inactive) | > 44.7 µM (inactive) | > 64.3 µM (inactive) | 0.893 µM (active) | > 25.9 µM (inactive) | > 42 µM (inactive) | > 42.4 µM (inactive) | > 28.4 µM (inactive) | 19 µM (inactive) | > 65 µM (inactive)
